What was measured:
[1] = target: T1, S100P and RAGE (Homo sapiens, UniProt P25815); assay: Co-immunoprecipitation of S100P and RAGE from BxPC-3 cell lysates; format: binding; conditions: cromolyn 100 μM
T1 construct: endogenous in cells; host or cells: BxPC-3 pancreatic adenocarcinoma cell lysate
T1 sequence (P25815 1-95): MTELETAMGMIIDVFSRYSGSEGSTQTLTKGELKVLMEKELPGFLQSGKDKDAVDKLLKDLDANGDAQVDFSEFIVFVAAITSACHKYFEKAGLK
Description: Receptor for advanced glycation end products (RAGE) was identified in the immunoprecipitates by immunoblotting with a goat polyclonal anti-RAGE antibody and anti-S100P as an internal control. In the lower panel, one representative blot and densitometric analysis (means and 95% confidence intervals [CIs]) of three independent experiments is shown. *P<0.001, versus IP α-S100P without cromolyn.
For co-immunoprecipitation experiments, BxPC-3 cell lysates were incubated in the absence or presence of cromolyn (100 μM) at 4° C. overnight. S100P was immunoprecipitated using a mouse monoclonal anti-S100P antibody (Transduction Laboratories, San Diego, Calif.) for 6 hours at 4° C. and IgG-immobilized beads (Pierce Biotechnology, Inc. Rockford, Ill.). Antibody-associated proteins were electrophoresed on 10% polyacrylamide gels and electrophoretically transferred to nitrocellulose membranes. Membranes were blocked in PBS/5% milk overnight at 4° C. RAGE was detected using a goat polyclonal anti-RAGE antibody (1:200, Santa Cruz, Santa Cruz, Calif.), and S100P was detected using a goat polyclonal anti-S100P antibody (1:50, R & D systems, Minneapolis, Minn.) by immunoblotting as described in Arumugam, et al., S100P stimulates cell proliferation and survival via receptor for activated glycation end products (RAGE); J. Biol. Chem. 2004 Feb. 13; 279(7):5059-65. Briefly, membranes were incubated in primary antibody for 1 hour at room temperature followed by incubation with horseradish peroxidase-labeled secondary antibody for 30 minutes at room temperature. After a thorough wash in TBS-T buffer (1M Tris-HCL pH 8.3, 3M NaCl, 0.1% Tween-20), antibody-protein complexes were detected by using a chemiluminescent substrate (GE Healthcare Bio-Sciences Corp., Piscataway, N.J.). The intensity of the band was estimated (as density units) using densitometry (GS-250 Molecular Imaging System, Bio-Rad Laboratories, Richmond, Calif.). The experiment was repeated three times.

[2] = tested on: BxPC-3 cells; assay: BxPC-3 cell growth (MTS); format: cell-based; conditions: 48 hours; for BxPC-3 basal cell proliferation, mean: 0 μM mean=1.2
Description: BxPC-3 cells were plated at 1.0×10^3 cells/well and treated with 0 μM, 1 μM, 10 μM, and 100 μM of cromolyn, and cell proliferation was analyzed after 48 hours. Means and 95% confidence intervals of three independent experiments performed in triplicate are shown. *, P=0.002; †, P<0.001 versus control. Growth of Panc-1 and BxPC3 pancreatic adenocarcinoma cells was analyzed using MTS reagent (Promega, Madison, Wis.) according to the manufacturer's directions. Purified S100P (100 nM final concentration) with or without cromolyn (100 μM final concentration) was added to Panc-1 cells. Only cromolyn (0-100 μM) was added to BxPC-3 cells, which express endogenous S100P. For both cell models, 1.0×10^3 cells/well were plated in 96-well culture dishes. Cells were treated with S100P, PDGF, or cromolyn, or a combination, followed immediately by treatment with either S100P or PDGF. MTS (20 μL per well) was added to cells at various times, and the mixture was incubated for 1 hour at 37° C. Samples were then read at 490 nm (as O.D. units) on a uQuant-Microplate Spectrophotometer (Bio-Tek Services Inc., Richmond, Va.). The assay was performed three times in triplicate.

[3] = tested on: BxPC-3 cells; assay: Matrigel invasion assay, BxPC-3; format: cell-based; conditions: 24 hours; for BxPC-3 cells invaded, mean: 0 μM mean=19.3%
Description: FIGS. 2A-2D show the effect of cromolyn on pancreatic cancer cell invasion. Panc-1 and BxPC-3 cells were plated in Bio-coat matrigel and control chambers and cultured in serum-free culture media. After 24 hours non-invaded cells in the upper chamber were removed, and cells that invaded onto the lower surface of the membrane were counted from five adjacent fields. […] Data are expressed as the percent invasion through the matrigel matrix and membrane relative to migration through the control membrane. Means and 95% confidence intervals from three independent experiments performed in triplicate are shown. Two-tailed two-sample (unpaired) Student's t-tests were used to determine P values. Panc-1 and BxPC-3 cells were seeded in BIOCOAT matrigel invasion chambers and in control chambers without matrigel (Becton-Dickinson, Bedford, Mass.) according to the manufacturer's protocol. Panc-1 cells were seeded with S100P (100 nM) with or without cromolyn (100 μM), and BxPC-3 cells were seeded with or without cromolyn (1-100 μM). Briefly, 2.0×10^5 cells in 300 μL top solution (serum-free media) were added to each chamber and allowed to invade matrigel for 24 hours at 37° C. in a 5% CO2 atmosphere. The non-invading cells on the upper surface of membrane were removed from the chambers with a cotton swab, and the invading cells on the lower surface of the membrane were fixed and stained using a Diff-Quick stain kit (Becton Dickinson, Bedford, Mass.). After two washes with water, the chambers were allowed to air dry. The numbers of invading cells in five adjacent microscope fields per membrane were counted at 20× magnification to obtain the average number of cells per field. Data are expressed as the percent invasion through the matrigel matrix and membrane relative to the migration through the control membrane. The assays were performed three times.

[4] = tested on: NFκB promoter activity in BxPC-3 cells; assay: Luciferase assay for NFκB activity, BxPC-3; format: cell-based; conditions: for basal NFκB activity in BxPC-3 cells, mean: 5 hours, 0 μM mean=1.4×10^6
[5] = target: T2, S100P binding with RAGE (Homo sapiens, UniProt P25815); assay: S100P binding with RAGE ELISA (sRAGE coated plate)
T2 construct: full-length human S100P cDNA (NM_005980) was cloned into the pTrcHis2 vector; His tag
T2 sequence (P25815 1-95): T1 sequence (P25815 1-95)
Description: After removing un-bound S100P by washing with detergent, the bound S100P and RAGE complex was quantified by adding HRP labeled antibody against S100P. *, P=0.04 C5 μM versus cromolyn 5 μM. Two-tailed two-sample (unpaired) Student's t-tests were used to determine P values.

[6] = tested on: PC3 prostate cells; assay: PC3 prostate cell proliferation; format: cell-based; conditions: 24, 48 and 72 hours
Description: PC3 prostate cells were cultured for up to three days in the presence of different concentrations of cromolyn, and cell proliferation was analyzed at 24, 48, and 72 hours. *, P<0.05.

[7] = tested on: S100s A1, B, A12, and A13; conditions: previously found; cited from earlier work
[8] = background statement; cited from earlier work

SMILES: O=C(O)c1cc(=O)c2c(OCC(O)COc3cccc4oc(C(=O)O)cc(=O)c34)cccc2o1 [cromolyn, disodium 1,3-bis[(2′-carboxylatochromon-5′-yl)oxy]-2-hydroxypropane]
- co-immunoprecipitation of S100P and RAGE, difference control versus cromolyn [1]: 25640 density units
- total amount of S100P immunoprecipitated [1]: no effect
- co-immunoprecipitation of S100P and RAGE, mean ([1]; control mean=34040): 8410 density units
- BxPC-3 cell proliferation, difference versus 0 μM ([2]; cromolyn 10 μM): 0.5 MTS units
- BxPC-3 basal cell proliferation, mean ([2]; cromolyn 10 μM): 0.7 MTS units
- BxPC-3 cell proliferation, difference versus 0 μM ([2]; cromolyn 100 μM): 0.6 MTS units
- BxPC-3 basal cell proliferation, mean ([2]; cromolyn 100 μM): 0.6 MTS units
- BxPC-3 cells invaded, difference versus 0 μM ([3]; cromolyn 10 μM): 10.0%
- BxPC-3 cells invaded, mean ([3]; cromolyn 10 μM): 9.3%
- BxPC-3 cells invaded, difference versus 0 μM ([3]; cromolyn 100 μM): 11.7%
- BxPC-3 cells invaded, mean ([3]; cromolyn 100 μM): 7.7%
- basal NFκB activity in BxPC-3 cells, difference versus 0 μM ([4]; cromolyn 10 μM): 4.7×10^5 photons/sec
- basal NFκB activity in BxPC-3 cells, mean ([4]; cromolyn 10 μM): 9.4×10^5 photons/sec
- basal NFκB activity in BxPC-3 cells, difference versus 0 μM ([4]; cromolyn 100 μM): 5.9×10^5 photons/sec
- basal NFκB activity in BxPC-3 cells, mean ([4]; cromolyn 100 μM): 8.2×10^5 photons/sec
- concentration achieving the same level of S100P inhibition [5]: 5 µM
- interaction between S100P with RAGE [5]: blocked
- growth of PC3 cells [6]: reduced growth
- binding to S100 proteins [7]: bind
- permeability to cells [8]: impermeant to cells

— patent US8252807B2, “Methods of inhibiting the interaction between S100 and the receptor for advanced glycation end-products” (Board of Regents, The University of Texas System, priority 2007, dated 2012)
